Like-named read-outs stand apart in the source and are kept apart here.
Assays:
[1] = tested on: DENV-2 16681 strain; experiment: DENV-2 antiviral assay (eGFP-labeled virus, Vero cells); type: cell-based, Dengue virus; conditions: for EC50: DENV-2 16681 eGFP, Vero cells, MOI 0.5, 3 days; for SI: SI=CC50/EC50, DENV-2 antiviral assay
Method: The antiviral activity of all the compounds of the invention was tested against the DENV-2 16681 strain which was labeled with enhanced green fluorescent protein (eGPF). The culture medium consists of minimal essential medium supplemented with 2% of heat-inactivated fetal calf serum, 0.04% gentamycin (50 mg/mL) and 2 mM of L-glutamine. Vero cells, obtained from ECACC, were suspended in culture medium and 25 μL was added to 384-well plates (2500 cells/well), which already contain the antiviral compounds. Typically, these plates contain a 5-fold serial dilution of 9 dilution steps of the test compound at 200 times the final concentration in 100% DMSO (200 nL). […] Finally, each plate contains wells which are assigned as virus controls (containing cells and virus in the absence of compound), cell controls (containing cells in the absence of virus and compound) and medium controls (containing medium in the absence of cells, virus and compounds). To the wells assigned as medium control, 25 μL of culture medium was added instead of Vero cells. Once the cells were added to the plates, the plates were incubated for 30 minutes at room temperature to allow the cells to distribute evenly within the wells. Next, the plates were incubated in a fully humidified incubator (37° C., 5% CO2) until the next day. Then, DENV-2 strain 16681, labeled with eGFP, was added at a multiplicity of infection (MOI) of 0.5. Therefore, 15 μL of virus suspension was added to all the wells containing test compound and to the wells assigned as virus control. In parallel, 15 μL of culture medium was added to the medium and cell controls. Next, the plates were incubated for 3 days in a fully humidified incubator (37° C., 5% CO2). At the day of the read out, the eGFP fluorescence was measured using an automated fluorescence microscope at 488 nm (blue laser). Using an in-house LIMS system, inhibition dose response curves for each compound were calculated and the half maximal effective concentration (EC50) was determined. Therefore, the percent inhibition (I) for every test concentration is calculated using the following formula: I=100*([…])/(SVC−SCC); ST, SCC and SVC are the amount of eGFP signal in the test compound, cell control and virus control wells, respectively. The EC50 represents the concentration of a compound at which the virus replication is inhibited with 50%, as measured by a 50% reduction of the eGFP fluorescent intensity compared to the virus control. The EC50 is calculated using linear interpolation (Table 1).

[2] = tested on: Vero cells; conditions: African green monkey
[3] = tested on: DENV-1 strain TC974#666; experiment: Tetravalent RT-qPCR assay, serotype 1; type: cell-based, Dengue virus; conditions: for EC50: Dengue virus, DENV1, Vero, 72 h, RT-qPCR serotype 1 TC974#666, Protocol A, Vero cells, day 3; for SI: RT-qPCR serotype 1 TC974#666
Method: (§1) The antiviral activity of the compounds of the invention was tested against DENV-1 strain TC974#666 (NCPV), DENV-2 strain 16681, DENV-3 strain H87 (NCPV) and DENV-4 strain H241 (NCPV) in a RT-qPCR assay. Therefore, Vero cells were infected with either DENV-1, or -2, or -3, or -4 in the presence or absence of test compounds. At day 3 post-infection, the cells were lysed and cell lysates were used to prepare cDNA of both a viral target (the 3′UTR of DENV; Table 2) and a cellular reference gene (β-actin, Table 2). Subsequently, a duplex real time PCR was performed on a Lightcycler480 instrument. The generated Cp value is inversely proportional to the amount of RNA expression of these targets. Inhibition of DENV replication by a test compound result in a shift of Cp's for the 3′UTR gene. On the other hand, if a test compound is toxic to the cells, a similar effect on β-actin expression will be observed. The comparative ΔΔCp method is used to calculate EC50, which is based on the relative gene expression of the target gene (3′UTR) normalized with the cellular housekeeping gene (β-actin). In addition, CC50 values are determined based on the Cp values acquired for the housekeeping gene β-actin.
(§2) The culture medium consisted of minimal essential medium supplemented with 2% of heat-inactivated fetal calf serum, 0.04% gentamycin (50 mg/mL) and 2 mM of L-glutamine. Vero cells, obtained from ECACC, were suspended in culture medium and 75 μL/well was added in 96-well plates (10000 cells/well), which already contain the antiviral compounds. […] In addition, each plate contains wells which are assigned as virus controls (containing cells and virus in the absence of compound) and cell controls (containing cells in the absence of virus and compound). Once the cells were added in the plates, the plates were incubated in a fully humidified incubator (37° C., 5% CO2) until the next day. Dengue viruses serotype-1, 2, 3 and 4 were diluted in order to obtain a Cp of ˜22-24 in the assay. Therefore, 25 μL of virus suspension was added to all the wells containing test compound and to the wells assigned as virus control. In parallel, 25 μL of culture medium was added to the cell controls. Next, the plates were incubated for 3 days in a fully humidified incubator (37° C., 5% CO2). After 3 days, the supernatant was removed from the wells and the cells were washed twice with ice-cold PBS (˜100 μL). The cell pellets within the 96-well plates were stored at −80° C. for at least 1 day. Next, RNA was extracted using the Cells-to-CT™ lysis kit, according to the manufacturer's guideline (Life Technologies). The cell lysates can be stored at −80° C. or immediately used in the reverse transcription step.
(§3) In preparation of the reverse transcription step, mix A (table 3A) was prepared and 7.57 μL/well was dispensed in a 96-well plate. After addition of 5 μL of the cell lysates, a five minute denaturation step at 75° C. was performed (table 3B). Afterwards, 7.43 μL of mix B was added (table 3C) and the reverse transcription step was initiated (table 3D) to generate cDNA.
(§4) Finally, a RT-qPCR mix was prepared, mix C (table 4A), and 22.02 μL/well was dispensed in 96-well LightCycler qPCR plates to which 3 μL of cDNA was added and the qPCR was performed according to the conditions in table 4B on a LightCycler 480.
(§5) Using the LightCycler software and an in-house LIMS system, dose response curves for each compound were calculated and the half maximal effective concentration (EC50) and the half maximal cytotoxic concentration (CC50) were determined (Tables 5-8).

[4] = tested on: DENV-2 strain 16681; experiment: Tetravalent RT-qPCR assay, serotype 2; type: cell-based, Dengue virus; conditions: for EC50: Dengue virus, DENV2, Vero, 72 h, RT-qPCR serotype 2 16681, Protocol A, Vero cells, day 3; for SI: RT-qPCR serotype 2 16681
Method: as §1, §2, §3, §4, §5

[5] = tested on: DENV-3 strain H87; experiment: Tetravalent RT-qPCR assay, serotype 3; type: cell-based, Dengue virus; conditions: for EC50: Dengue virus, DENV3, Vero, 72 h, RT-qPCR serotype 3 H87, Protocol A, Vero cells, day 3; for SI: RT-qPCR serotype 3 H87
Method: as §1, §2, §3, §4, §5

[6] = tested on: DENV-4 strain H241; experiment: Tetravalent RT-qPCR assay, serotype 4; type: cell-based, Dengue virus; conditions: for EC50: Dengue virus, DENV4, Vero, 72 h, RT-qPCR serotype 4 H241, Protocol A, Vero cells, day 3; for SI: RT-qPCR serotype 4 H241
Method: as §1, §2, §3, §4, §5

[7] = in vitro; type: cell-based; conditions: African green monkey, CC50
Method: as §1, §2, §5

[8] = in vitro; conditions: African green monkey

| SMILES | EC50 [1] [µM] | SI [1] | CC50 [2] [µM] | EC50 ([3]; read-out: EC50) [µM] | SI [3] | EC50 [4] [µM] | SI [4] | EC50 ([5]; read-out: EC50) [µM] | SI [5] | EC50 [6] [µM] | SI [6] | EC50 [3] [µM] | EC50 [5] [µM] | CC50 at 3 days [7] [µM] | CC50 [8] [µM] |
| --- | --- | --- | --- | --- | --- | --- | --- | --- | --- | --- | --- | --- | --- | --- | --- |
| COc1cc(NC(C(=O)c2c[nH]c3cc(F)ccc23)c2ccc(Cl)cc2OC)cc(OCCOP(=O)(O)O)c1 (single isomer, unassigned) [Compound 13B-P] | 0.013 | 822 | 11 |  |  |  |  |  |  |  |  |  |  |  |  |
| COc1cc(NC(C(=O)c2c[nH]c3cc4c(cc23)CCO4)c2ccc(Cl)cc2OC)cc(OCCO)c1 (single isomer, unassigned) [Compound 10B] | 0.00032 | 19700 | 9.5 | 0.0032 | 3340 | 0.0004 | 23600 | 0.022 | 316 | 0.11 | >29 |  |  |  |  |
| [2H]C(Nc1cc(OC)cc(OCCO)c1)(C(=O)c1c[nH]c2cc(OC)c(C)cc12)c1ccc(Cl)cc1OC (single isomer, unassigned) [Compound 14A-D] | 0.00026 | 17600 |  |  | 1070 | 0.00029 | >11900 |  | >261 | 0.074 | >46 | 0.003 | 0.0098 | > 2.3 | 3.6 |
| COc1cc(NC(C(=O)c2c[nH]c3cc(F)c(C)cc23)c2ccc(Cl)cc2OC)cc(OCCO)c1 (single isomer, unassigned) [Compound 9B] | 0.00044 | 7480 |  | 0.0014 | 1700 | 0.00069 | 5540 | 0.016 | 234 | 0.092 | 28 |  |  | 3 |  |
| COc1cc(NC(C(=O)c2c[nH]c3c4c(ccc23)OCC4)c2ccc(F)cc2OC)cc(OCCO)c1 (single isomer, unassigned) [Compound 8B] | 0.82 | 14 | 12 |  |  |  |  |  |  |  |  |  |  |  |  |
| COc1cc(NC(C(=O)c2c[nH]c3cc(F)c(C)cc23)c2ccc(F)cc2OC)cc(OCCO)c1 (single isomer, unassigned) [Compound 3A] | 0.0011 | 3230 | 3.8 | 0.004 | 748 | 0.0016 | 1610 | 0.022 | 42 | 0.21 | 11 |  |  |  |  |
| [2H]C(Nc1cc(OC)cc(OCCO)c1)(C(=O)c1c[nH]c2cc(F)ccc12)c1ccc(Cl)cc1OC (single isomer, unassigned) [Compound 13B-D] | 0.17 | 54 | 9.6 |  |  |  |  |  |  |  |  |  |  |  |  |
| COc1cc(NC(C(=O)c2c[nH]c3ccc(C)cc23)c2ccc(F)cc2OC)cc(OCCO)c1 (single isomer, unassigned) [Compound 5B] | 0.82 | 14 | 11 |  |  |  |  |  |  |  |  |  |  |  |  |
| COc1cc(NC(C(=O)c2c[nH]c3cc(F)c(C)cc23)c2ccc(F)cc2OC)cc(OCCO)c1 (single isomer, unassigned) [Compound 3B] | 0.25 | 31 | 8 |  |  |  |  |  |  |  |  |  |  |  |  |
| COc1cc(NC(C(=O)c2c[nH]c3cc(OC)c(Cl)cc23)c2ccc(F)cc2OC)cc(OCCO)c1 (single isomer, unassigned) [Compound 2B] | 0.13 | 85 | 11 |  |  |  |  |  |  |  |  |  |  |  |  |
| COc1cc(NC(C(=O)c2c[nH]c3c(C)cc(Cl)cc23)c2ccc(F)cc2OC)cc(OCCO)c1 (single isomer, unassigned) [Compound 1B] | 0.072 | 148 | 11 |  |  |  |  |  |  |  |  |  |  |  |  |
| COc1cc(NC(C(=O)c2c[nH]c3ccc(C)cc23)c2ccc(F)cc2OC)cc(OCCO)c1 (single isomer, unassigned) [Compound 5A] | 0.0025 | 2910 |  | 0.007 | 1430 | 0.0027 | 4290 | 0.05 | 207 | 0.27 | 21 |  |  | 10 | 5.8 |
| COc1cc(NC(C(=O)c2c[nH]c3ccc(S(F)(F)(F)(F)F)cc23)c2ccc(Cl)cc2OC)cc(OCCO)c1 (single isomer, unassigned) [Compound 15A] | 0.00017 | 16000 | 2.7 | 0.00013 | 16100 | 0.00011 | 21200 | 0.0044 | 361 | 0.014 | 84 |  |  |  |  |
| [2H]C(Nc1cc(OC)cc(OCCO)c1)(C(=O)c1c[nH]c2cc(OC)c(C)cc12)c1ccc(Cl)cc1OC (single isomer, unassigned) [Compound 14B-D] | 0.11 | 52 | 6 |  |  |  |  |  |  |  |  |  |  |  |  |
| COc1cc(NC(C(=O)c2c[nH]c3c4c(ccc23)OCC4)c2ccc(Cl)cc2OC)cc(OCCO)c1 (single isomer, unassigned) [Compound 11B] | 0.17 | 49 | 8.2 |  |  |  |  |  |  |  |  |  |  |  |  |
